# Assay results published in patent US8192962B2, “Processes for detecting toxic substances” (Daikin Industries, Ltd., priority 2001, dated 2012).
# System: Detoxification protein genes
# Experiment: DNA chip mRNA expression in yeast, detoxification protein genes (Table 8)
# Assay type: cell-based, Saccharomyces cerevisiae S288C
# Procedure, shortened: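 First, S288C yeast grown in YPD at 25° C. are dosed in log phase with one toxicant (growth-inhibiting, not lethal) for 2 h. Next, total RNA is extracted and poly(A) mRNA isolated and reverse-transcribed with Cy3/Cy5-dUTP. Finally, whole-genome chip fluorescence is read relative to unexposed cells.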
smiles,measurement,setting,value
"C[S+](C)[O-] [(15), dimethylsulfoxide]",The level of expressed mRNA in the presence of chemical substance/The level of expressed mRNA in the absence of chemical substance,yeast gene YBL064C,1.3
same,The level of expressed mRNA in the presence of chemical substance/The level of expressed mRNA in the absence of chemical substance,yeast gene YBR008C,0.8
same,The level of expressed mRNA in the presence of chemical substance/The level of expressed mRNA in the absence of chemical substance,yeast gene YBR244W,0.4
same,The level of expressed mRNA in the presence of chemical substance/The level of expressed mRNA in the absence of chemical substance,yeast gene YBR293W,3.1
same,The level of expressed mRNA in the presence of chemical substance/The level of expressed mRNA in the absence of chemical substance,yeast gene YCR083W,1.0
same,The level of expressed mRNA in the presence of chemical substance/The level of expressed mRNA in the absence of chemical substance,yeast gene YDL100C,1.0
same,The level of expressed mRNA in the presence of chemical substance/The level of expressed mRNA in the absence of chemical substance,yeast gene YDR256C,1.0
same,The level of expressed mRNA in the presence of chemical substance/The level of expressed mRNA in the absence of chemical substance,yeast gene YDR453C,2.3
same,The level of expressed mRNA in the presence of chemical substance/The level of expressed mRNA in the absence of chemical substance,yeast gene YDR513W,1.3
same,The level of expressed mRNA in the presence of chemical substance/The level of expressed mRNA in the absence of chemical substance,yeast gene YDR538W,1.0
same,The level of expressed mRNA in the presence of chemical substance/The level of expressed mRNA in the absence of chemical substance,yeast gene YER185W,1.7
same,The level of expressed mRNA in the presence of chemical substance/The level of expressed mRNA in the absence of chemical substance,yeast gene YGL013C,1.0
same,The level of expressed mRNA in the presence of chemical substance/The level of expressed mRNA in the absence of chemical substance,yeast gene YGR088W,0.7
same,The level of expressed mRNA in the presence of chemical substance/The level of expressed mRNA in the absence of chemical substance,yeast gene YGR138C,4.5
same,The level of expressed mRNA in the presence of chemical substance/The level of expressed mRNA in the absence of chemical substance,yeast gene YGR197C,1.0
same,The level of expressed mRNA in the presence of chemical substance/The level of expressed mRNA in the absence of chemical substance,yeast gene YGR209C,1.3
same,The level of expressed mRNA in the presence of chemical substance/The level of expressed mRNA in the absence of chemical substance,yeast gene YHL040C,3.4
same,The level of expressed mRNA in the presence of chemical substance/The level of expressed mRNA in the absence of chemical substance,yeast gene YHR008C,1.7
same,The level of expressed mRNA in the presence of chemical substance/The level of expressed mRNA in the absence of chemical substance,yeast gene YHR048W,0.9
same,The level of expressed mRNA in the presence of chemical substance/The level of expressed mRNA in the absence of chemical substance,yeast gene YHR053C,0.3
same,The level of expressed mRNA in the presence of chemical substance/The level of expressed mRNA in the absence of chemical substance,yeast gene YHR055C,0.5
same,The level of expressed mRNA in the presence of chemical substance/The level of expressed mRNA in the absence of chemical substance,yeast gene YJL101C,0.5
same,The level of expressed mRNA in the presence of chemical substance/The level of expressed mRNA in the absence of chemical substance,yeast gene YJR104C,1.3
same,The level of expressed mRNA in the presence of chemical substance/The level of expressed mRNA in the absence of chemical substance,yeast gene YKL026C,0.8
same,The level of expressed mRNA in the presence of chemical substance/The level of expressed mRNA in the absence of chemical substance,yeast gene YKL064W,0.7
same,The level of expressed mRNA in the presence of chemical substance/The level of expressed mRNA in the absence of chemical substance,yeast gene YKR066C,0.6
same,The level of expressed mRNA in the presence of chemical substance/The level of expressed mRNA in the absence of chemical substance,yeast gene YLL028W,3.1
same,The level of expressed mRNA in the presence of chemical substance/The level of expressed mRNA in the absence of chemical substance,yeast gene YLR043C,0.5
same,The level of expressed mRNA in the presence of chemical substance/The level of expressed mRNA in the absence of chemical substance,yeast gene YLR046C,0.8
same,The level of expressed mRNA in the presence of chemical substance/The level of expressed mRNA in the absence of chemical substance,yeast gene YML116W,1.9
same,The level of expressed mRNA in the presence of chemical substance/The level of expressed mRNA in the absence of chemical substance,yeast gene YMR038C,0.6
same,The level of expressed mRNA in the presence of chemical substance/The level of expressed mRNA in the absence of chemical substance,yeast gene YNL241C,7.0
same,The level of expressed mRNA in the presence of chemical substance/The level of expressed mRNA in the absence of chemical substance,yeast gene YNL259C,0.7
same,The level of expressed mRNA in the presence of chemical substance/The level of expressed mRNA in the absence of chemical substance,yeast gene YOL158C,0.9
same,The level of expressed mRNA in the presence of chemical substance/The level of expressed mRNA in the absence of chemical substance,yeast gene YOR153W,3.6
same,The level of expressed mRNA in the presence of chemical substance/The level of expressed mRNA in the absence of chemical substance,yeast gene YOR251C,0.6
same,The level of expressed mRNA in the presence of chemical substance/The level of expressed mRNA in the absence of chemical substance,yeast gene YOR273C,0.8
same,The level of expressed mRNA in the presence of chemical substance/The level of expressed mRNA in the absence of chemical substance,yeast gene YPR200C,0.7
